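Where inhibition never reached the appropriate level, the endpoint shown equals the highest concentration tested. Otherwise, values were interpolated linearly from a five-concentration, 48-hour dose response in 96-well plates. At the GI50, growth is halved. TGI: concentration producing complete growth inhibition.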 Where a SMILES comes first, the peptide text is derived from it. The star is where a group is joined. Trt = c1ccc(C(c2ccccc2)(c2ccccc2)*)cc1; Cbz = O=C(OCc1ccccc1)*
Legend:
Assay in all cases: DTP human tumour cell line panel, 48 h
HL-60(TB) leukemia = tested on: HL-60(TB) leukemia
CCRF-CEM leukemia = tested on: CCRF-CEM leukemia
NCI-H522 lung = tested on: NCI-H522 lung
SK-MEL-28 melanoma = tested on: SK-MEL-28 melanoma
SK-MEL-5 melanoma = tested on: SK-MEL-5 melanoma
HCT-15 colon = tested on: HCT-15 colon
HT29 colon = tested on: HT29 colon
CAKI-1 renal = tested on: CAKI-1 renal
SF-295 CNS = tested on: SF-295 CNS
M14 melanoma = tested on: M14 melanoma

SMILES | TGI (HL-60(TB) leukemia) [µM] | TGI (CCRF-CEM leukemia) [µM] | TGI (NCI-H522 lung) [µM] | TGI (SK-MEL-28 melanoma) [µM] | TGI (SK-MEL-5 melanoma) [µM] | TGI (HCT-15 colon) [µM] | TGI (HT29 colon) [µM] | TGI (CAKI-1 renal) [µM] | TGI (SF-295 CNS) [µM] | TGI (M14 melanoma) [µM] | GI50 (HL-60(TB) leukemia) [µM] | GI50 (CCRF-CEM leukemia) [µM] | GI50 (NCI-H522 lung) [µM] | GI50 (SK-MEL-28 melanoma) [µM] | GI50 (SK-MEL-5 melanoma) [µM] | GI50 (HCT-15 colon) [µM] | GI50 (HT29 colon) [µM] | GI50 (CAKI-1 renal) [µM] | GI50 (SF-295 CNS) [µM] | GI50 (M14 melanoma) [µM]
S=c1c2ccccc2c(=S)n2n1CC=CC2 | > 100 | > 100 | > 100 | > 100 | > 100 | > 100 | > 100 | > 100 | > 100 | > 100 | – | – | – | – | – | – | – | – | – | –
COC(=O)C(CSC(c1ccccc1)(c1ccccc1)c1ccccc1)NC(=O)C(CC(N)=O)NC(=O)OCc1ccccc1 (stereo not drawn) (Cbz-Asn-Cys(Trt)-OMe; configuration not given here) | 4.39 | 19.7 | 18.7 | 15.4 | 14.4 | 14.1 | 17.2 | 14.3 | 13.9 | 3.69 | 2.1 | 3.33 | 3.91 | 3.42 | 3.23 | 3.81 | 5.03 | 3.51 | 2.96 | 1.68
CCOC(=O)CC(NC(=O)c1ccc(N=NN(C)C)cc1)C(=O)OCC (stereo not drawn) | > 100 | > 100 | > 100 | > 100 | > 100 | > 100 | > 100 | > 100 | > 100 | > 100 | – | – | – | – | – | – | – | – | – | –
COc1ccc(C(=O)c2cc3c(N)c(C(=O)Nc4cccc(OC)c4)sc3nc2C)cc1 | 1.52 | > 100 | > 100 | > 100 | > 46.1 | > 100 | > 100 | > 100 | > 100 | > 100 | 0.311 | 0.363 | 1.19 | > 100 | 0.643 | 0.479 | 0.472 | 0.694 | 0.601 | 0.341
O=S(=O)(O)SCCNCCCCCC1CCCCC1 | > 100 | > 100 | 37.3 | 18.3 | 31.9 | 24.5 | 19.1 | 35.4 | 16.4 | 18.4 | – | – | – | – | – | – | – | – | – | –
O=C(/C=C/c1ccc([N+](=O)[O-])cc1)c1cccc(Nc2nc(Nc3ccccc3)nc(Nc3ccccc3)n2)c1 | 37.7 | 25.6 | > 100 | 40.1 | 17.6 | > 100 | > 100 | > 100 | > 100 | 90.6 | 8.82 | 3.85 | 12.4 | 12.5 | 1.13 | 17.7 | 7.79 | 25.2 | 9.81 | 21.6
COc1ccc(C2=Nc3c/c(=C\c4c(O)[nH]c5cc(Cl)ccc45)ccc3=N2)cc1 | 4.84 | 9.21 | 29.1 | 19.9 | 22.7 | 11.5 | 11.4 | 43.6 | 63.8 | 21.6 | 1.97 | 1.41 | 7.07 | 1.55 | 10.7 | 3 | 3.06 | 14.5 | 12.3 | 4.17
CCCCCCCCCCCCCCCCOCC(O)CO (stereo not drawn) | 23.4 | 27.3 | 33.2 | 33.3 | 71.9 | 35.9 | 31.8 | 35 | 30.3 | 58 | – | – | – | – | – | – | – | – | – | –
Cc1c(Cl)cccc1NC(=O)c1sc2nc3c(cc2c1N)CCCC3 | – | > 100 | 0.812 | > 100 | > 100 | > 100 | > 100 | > 100 | > 100 | > 100 | 0.305 | 0.447 | 0.241 | – | 0.513 | 0.392 | 0.369 | 1.01 | 0.346 | 0.39
O=C1C=Cc2ncccc2C1=O | 36.1 | 15.2 | 29.7 | 48.1 | 28.2 | 33.5 | 43.4 | 48.9 | 32.2 | 32 | – | – | – | – | – | – | – | – | – | –
O=C(CCCCCCCCC(=O)N/N=C\c1cc(Cl)ccc1O)N/N=C\c1cc(Cl)ccc1O | 0.571 | 24.6 | > 100 | > 100 | 0.659 | > 100 | > 100 | > 100 | > 46.5 | 8.69 | 0.164 | 0.172 | 0.31 | 2.64 | 0.161 | 0.251 | > 25.5 | 0.251 | 1.11 | 0.221
CN1CCN(c2ccc3nc(-c4ccc(OCCCCN5CCN(CCCCN6C(=O)c7cccc8cccc(c78)C6=O)CC5)cc4)[nH]c3c2)CC1 | > 100 | > 100 | > 100 | 49.9 | 76.9 | > 100 | > 100 | > 100 | > 100 | > 100 | 25.1 | 47.8 | 52.9 | 19.4 | 18.8 | 35.3 | 86.4 | 73.1 | 62.4 | > 100
COc1cc(/C=N/NC(=O)c2ccccc2Nc2cccc(C(F)(F)F)c2)cc(OC)c1OC | 4.73 | 4.33 | 24.6 | 8.16 | 10.8 | 13.2 | 10.8 | 4.71 | 3.04 | 14.4 | 2.01 | 1.03 | 6.1 | 2.28 | 2.93 | 2.85 | 1.67 | 1.4 | 0.471 | 3.35
Nc1ccn(C2OC(C(OC3OC(CO)C(O)C(N)C3O)C(O)C(O)C(O)C(O)CO)C(N)C(O)C2O)c(=O)n1 (stereo not drawn) | > 100 | > 100 | 93.5 | > 100 | > 100 | > 100 | > 100 | > 100 | 58 | > 100 | – | – | – | – | – | – | – | – | – | –
COc1cc2c(cc1OCCCOc1ccc(-c3nc4ccc(N5CCN(C)CC5)cc4[nH]3)cc1)N=C[C@@H]1CCCN1C2=O | < 0.01 | 2.33 | < 0.01 | 54.5 | < 0.01 | 42.8 | > 100 | < 0.01 | < 0.0359 | < 0.01 | < 0.01 | < 0.01 | < 0.01 | < 0.01 | < 0.01 | < 0.0212 | < 0.01 | < 0.01 | < 0.01 | < 0.01
